Measured values published in patent US11434242B2, “Dopamine-b-hydroxylase inhibitors” (BIAL-PORTELA & Cª, S.A., priority 2017, dated 2022).

Target: T1, Dopamine beta hydroxylase (Homo sapiens, UniProt P09172)
T1 construct: 125 μl of plasma; tissue Instituto Português do Sangue Transplantação; host or cells: human plasma from healthy donors
T1 sequence (P09172 40-617 limits assumed): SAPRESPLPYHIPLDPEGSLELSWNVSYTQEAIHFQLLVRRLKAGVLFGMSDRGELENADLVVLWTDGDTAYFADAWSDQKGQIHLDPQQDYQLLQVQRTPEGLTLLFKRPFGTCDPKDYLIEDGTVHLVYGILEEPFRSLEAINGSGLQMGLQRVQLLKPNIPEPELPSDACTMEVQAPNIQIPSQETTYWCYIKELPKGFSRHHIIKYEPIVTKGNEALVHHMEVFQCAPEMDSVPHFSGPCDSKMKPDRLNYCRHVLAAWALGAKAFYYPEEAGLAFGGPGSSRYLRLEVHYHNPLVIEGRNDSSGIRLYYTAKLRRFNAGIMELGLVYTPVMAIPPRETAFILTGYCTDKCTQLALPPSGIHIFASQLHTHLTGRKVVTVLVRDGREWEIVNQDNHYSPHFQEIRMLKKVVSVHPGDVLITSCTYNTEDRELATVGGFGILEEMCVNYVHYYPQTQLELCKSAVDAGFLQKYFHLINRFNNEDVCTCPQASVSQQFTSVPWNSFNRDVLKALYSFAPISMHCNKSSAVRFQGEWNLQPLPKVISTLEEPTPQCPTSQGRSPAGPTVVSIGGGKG
Assay: Dopamine beta hydroxylase activity in human plasma
Format: biochemical
Details: for Plasma (0.01 μM), activity in % of control: inhibitor 0.01 μM; for Plasma (0.1 μM), activity in % of control: inhibitor 0.1 μM
Procedure, shortened: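 Healthy-donor human plasma pre-incubated 10 min at 37° C with compound at final 10, 100 or 1000 nM in pH 5.0 acetate buffer with ascorbate, fumarate, pargyline, N-ethylmaleimide, catalase and copper sulfate. Tyramine substrate then added for 45 min; octopamine formed was isolated by SCX cartridge, periodate-converted and read at 330 nm; activity given as % control.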

Structure (SMILES)	Plasma (0.01 μM), activity in % of control	Plasma (0.1 μM), activity in % of control
CN(C(=O)Cc1c2n(c(=S)n1C)C[C@@]1(c3cc(Cl)ccc3F)C[C@@H]21)C1CCOCC1 [Example 434, 2-((5aS,6aR)-5a-(5-chloro-2-fluorophenyl)-2-methyl-3-thioxo-2,3,5,5a,6,6a-hexahydrocyclopropa[3,4]pyrrolo[1,2-c]imidazol-1-yl)-N-methyl-N-(tetrahydro-2H-pyran-4-yl)acetamide]	52.5 % of control	8.5 % of control
CN(C(=O)Cc1c2n(c(=S)n1C)C[C@H](c1c(F)ccc(F)c1F)C2)C1COC1 [Example 435, (S)—N-methyl-2-(2-methyl-3-thioxo-6-(2,3,6-trifluorophenyl)-2,5,6,7-tetrahydro-3H-pyrrolo[1,2-c]imidazol-1-yl)-N-(oxetan-3-yl)acetamide]	66.5 % of control	36.6 % of control
Cn1c(CC(=O)N2CCOCC2)c2n(c1=S)C[C@@]1(c3cc(Br)ccc3F)C[C@@H]21 [Example 436, 2-((5aS,6aR)-5a-(5-bromo-2-fluorophenyl)-2-methyl-3-thioxo-2,3,5,5a,6,6a-hexahydrocyclopropa[3,4]pyrrolo[1,2-c]imidazol-1-yl)-1-morpholinoethan-1-one]	73.6 % of control	23.9 % of control
Cn1c(CC(=O)NC2COC2)c2n(c1=S)C[C@@]1(c3cc(Br)ccc3F)C[C@@H]21 [Example 437, 2-((5aS,6aR)-5a-(5-bromo-2-fluorophenyl)-2-methyl-3-thioxo-2,3,5,5a,6,6a-hexahydrocyclopropa[3,4]pyrrolo[1,2-c]imidazol-1-yl)-N-(oxetan-3-yl)acetamide]	62.7 % of control	6.1 % of control
CN(C(=O)Cc1c2n(c(=S)n1C)C[C@@]1(c3cc(Br)ccc3F)C[C@@H]21)C1COC1 [Example 438, 2-((5aS,6aR)-5a-(5-bromo-2-fluorophenyl)-2-methyl-3-thioxo-2,3,5,5a,6,6a-hexahydrocyclopropa[3,4]pyrrolo[1,2-c]imidazol-1-yl)-N-methyl-N-(oxetan-3-yl)acetamide]	64.0 % of control	7.5 % of control
CN(C(=O)Cc1c2n(c(=S)n1C)C[C@@]1(c3cc(Br)ccc3F)C[C@@H]21)C1CCOCC1 [Example 439, 2-((5aS,6aR)-5a-(5-bromo-2-fluorophenyl)-2-methyl-3-thioxo-2,3,5,5a,6,6a-hexahydrocyclopropa[3,4]pyrrolo[1,2-c]imidazol-1-yl)-N-methyl-N-(tetrahydro-2H-pyran-4-yl)acetamide]	67.2 % of control	11.8 % of control
CN(C(=O)Cc1c2n(c(=S)n1C)C[C@@]1(c3cc(Br)ccc3F)C[C@@H]21)C1CCOC1 (stereo partly drawn) [Example 440, 2-((5aS,6aR)-5a-(5-bromo-2-fluorophenyl)-2-methyl-3-thioxo-2,3,5,5a,6,6a-hexahydrocyclopropa[3,4]pyrrolo[1,2-c]imidazol-1-yl)-N-methyl-N-(tetrahydrofuran-3-yl)acetamide]	57.2 % of control	8.4 % of control
CN(C(=O)Cc1c2n(c(=S)n1C)C[C@@]1(c3cc(Cl)ccc3F)C[C@@H]21)C1CCOC1 (stereo partly drawn) [Example 441, 2-((5aS,6aR)-5a-(5-chloro-2-fluorophenyl)-2-methyl-3-thioxo-2,3,5,5a,6,6a-hexahydrocyclopropa[3,4]pyrrolo[1,2-c]imidazol-1-yl)-N-methyl-N-(tetrahydrofuran-3-yl)acetamide]	72.8 % of control	37.4 % of control
